Test results reported in US4820695A, “C-20-dihydro-deoxy-(cyclic amino)-derivatives of macrolide antibiotics” (priority 1987, dated 1989).
≈ marks a conversion by molar mass, not a printed value. Like-named read-outs stand apart in the source and are kept apart here.

Columns and labels:
[1] = tested on: Streptococcus Group D 2041; assay: MIC, standard agar-dilution assay (Table IX); assay type: cell-based; conditions: GROUPD2041, read-out: MIC
[2] = tested on: Staphylococcus epidermidis 222; assay: MIC, standard agar-dilution assay (Table IX); assay type: cell-based; conditions: read-out: MIC
[3] = tested on: Staphylococcus aureus X400; assay: MIC, standard agar-dilution assay (Table IX); assay type: cell-based; conditions: Staphylococcus aureus X400, Methicillin-resistant strain, read-out: MIC
[4] = tested on: Streptococcus pneumoniae Park I; assay: MIC, standard agar-dilution assay (Table IX); assay type: cell-based; conditions: Streptococcus pneumoniae Park I; agar-dilution; read-out: MIC
[5] = tested on: Haemophilus influenzae 76; assay: MIC, standard agar-dilution assay (Table IX); assay type: cell-based; conditions: Haemophilus influenzae 76, Ampicillin-resistant strain, read-out: MIC
[6] = tested on: Streptococcus pyogenes C203; assay: MIC, standard agar-dilution assay (Table IX); assay type: cell-based; conditions: read-out: MIC
[7] = tested on: Staphylococcus epidermidis EPI1; assay: MIC, standard agar-dilution assay (Table IX); assay type: cell-based; conditions: Staphylococcus epidermidis EPI1; agar-dilution; read-out: MIC
[8] = tested on: Haemophilus influenzae C.L.; assay: MIC, standard agar-dilution assay (Table IX); assay type: cell-based; conditions: Ampicillin-sensitive strain, read-out: MIC
[9] = tested on: Escherichia coli EC14; assay: MIC, standard agar-dilution assay (Table IX); assay type: cell-based; conditions: read-out: MIC
[10] = tested on: Staphylococcus aureus V41; assay: MIC, standard agar-dilution assay (Table IX); assay type: cell-based; conditions: Staphylococcus aureus V41, Penicillin-resistant strain, read-out: MIC
[11] = tested on: Escherichia coli N10; assay: MIC, standard agar-dilution assay (Table IX); assay type: cell-based; conditions: read-out: MIC
[12] = tested on: Staphyloccus aureus X1.1; assay: MIC, standard agar-dilution assay (Table IX); assay type: cell-based, Staphylococcus aureus; conditions: Staphylococcus aureus, read-out: MIC
[13] = tested on: Klebsiella X26; assay: MIC, standard agar-dilution assay (Table IX); assay type: cell-based; conditions: read-out: MIC
[14] = tested on: Staphylococcus aureus S13E; assay: MIC, standard agar-dilution assay (Table IX); assay type: cell-based; conditions: Staphylococcus aureus, S13E
[15] = tested on: Escherichia coli TEM; assay: MIC, standard agar-dilution assay (Table IX); assay type: cell-based; conditions: read-out: MIC
[16] = tested on: Streptococcus pyogenes C203; assay: ED50 in mice experimentally infected with S. pyogenes C203 (Table XI); assay type: in vivo; conditions: Streptococcus pyogenes, doses given 1 and 4 hours postinfection, read-out: ED50
How it was run: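 Protective ED50 (mg/kg × 2) was determined as the dose sparing half the animals. Test compound was given twice, at 1 and 4 hours after experimental S. pyogenes C203 infection of mice.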

[17] = tested on: Streptococcus Group D X66; assay: MIC, standard agar-dilution assay (Table IX); assay type: cell-based; conditions: read-out: MIC
[18] = tested on: Pasteurella hemolytica 22C; assay: MIC, broth-dilution microtiter test (Table X); assay type: cell-based; conditions: read-out: MIC
Text: (§1) The MIC's in Table X were obtained using conventional broth-dilution microtiter tests.

[19] = tested on: Mycoplasma gallisepticum 29C; assay: MIC, broth-dilution microtiter test (Table X); assay type: cell-based; conditions: Mycoplasmoides gallisepticum, read-out: MIC
Text: as §1

[20] = tested on: Mycoplasma synoviae 40A; assay: MIC, broth-dilution microtiter test (Table X); assay type: cell-based; conditions: Mycoplasmopsis synoviae, read-out: MIC
Text: as §1

[21] = tested on: Pasteurella multocida 17E; assay: MIC, broth-dilution microtiter test (Table X); assay type: cell-based; conditions: Bovine isolate, read-out: MIC
Text: as §1

[22] = tested on: Staphylococcus aureus 19C; assay: MIC, broth-dilution microtiter test (Table X); assay type: cell-based
Text: as §1

[23] = tested on: Pasteurella multocida 60A; assay: MIC, broth-dilution microtiter test (Table X); assay type: cell-based; conditions: Avian isolate, read-out: MIC
Text: as §1

[24] = tested on: Streptococcus sp. 19F; assay: MIC, broth-dilution microtiter test (Table X); assay type: cell-based; conditions: read-out: MIC
Text: as §1

[25] = tested on: Mycoplasma hyopneumoniae S5972; assay: MIC, broth-dilution microtiter test (Table X); assay type: cell-based; conditions: Mesomycoplasma hyopneumoniae, read-out: MIC
Text: as §1

[26] = tested on: Mycoplasma hyorhinis 29E; assay: MIC, broth-dilution microtiter test (Table X); assay type: cell-based; conditions: read-out: MIC
Text: as §1

[27] = tested on: Pasteurella multocida; assay: Pasteurella infection in one-day-old chicks, medicated drinking water (Table XIII); assay type: in vivo; conditions: Administered in the available drinking water at 2 g/gal
How it was run: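 Oral dosing was by medicated drinking water (2 g/gal), offered from 4–20 h pre-infection and through a 3-day observation period. The chicks, one day old, were infected s.c. with 0.1 ml of a 10^-4-diluted, 20-h tryptose broth culture of avian Pasteurella multocida.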

[28] = tested on: Pasteurella multocida; assay: Pasteurella infection in one-day-old chicks, subcutaneous administration (Table XII); assay type: in vivo; conditions: Administered subcutaneously, 30 mg/kg × 2, 1 and 4 hours post-challenge
How it was run: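 Treatment was 30 mg/kg s.c., given twice (1 and 4 h after infection). The infection itself was induced in day-old chicks by s.c. injection of 0.1 ml of avian Pasteurella multocida culture (20-h tryptose broth, diluted 10^-4).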

[29] = tested on: Group D strain 9960; assay: MIC, standard agar-dilution assay (Table IX); assay type: cell-based, Streptococcus Group D; conditions: tested using predecessor Group D strain 9960
[30] = Titratable groups in 66% aqueous DMF (Tables XIV-XVI); assay type: physicochemical
Text: ^c Run in 66% aqueous DMF
^d Run in 66% aqueous DMF

[31] = tested on: Staphylococcus aureus; assay: MIC, broth-dilution microtiter test (Table X); assay type: cell-based; conditions: read-out: MIC
Text: as §1

Row | SMILES | MIC [2] | MIC [3] | MIC [4] | MIC [5] | MIC [6] | MIC [7] | MIC [8] | MIC [9] | MIC [10] | MIC [11] | MIC [12] | MIC [13] | MIC [14] | MIC [18] | MIC [19] | MIC [20] | MIC [21] | MIC [23] | MIC [24] | MIC [26] | also measured
1 | CCC1OC(=O)CC(O)C(C)C(OC2OC(C)C(O)C(N(C)C)C2O)C(CCN2C(C)CCCC2C)CC(C)C(=O)C=CC(C)=CC1COC1OC(C)C(O)C(OC)C1OC (stereo not shown) [Compound D41] | 2 µg/mL (≈ 2.3 µM) | 8 µg/mL (≈ 9.2 µM) | 1 µg/mL (≈ 1.15 µM) | 64 µg/mL (≈ 73.6 µM) | 1 µg/mL (≈ 1.15 µM) | 8 µg/mL (≈ 9.2 µM) | 64 µg/mL (≈ 73.6 µM) | > 128 µg/mL | 8 µg/mL (≈ 9.2 µM) | > 128 µg/mL | 8 µg/mL (≈ 9.2 µM) | 128 µg/mL (≈ 147 µM) | 8 µg/mL (≈ 9.2 µM) | > 50 µg/mL | 6.25 µg/mL (≈ 7.19 µM) | 1.56 µg/mL (≈ 1.79 µM) | 25 µg/mL (≈ 28.8 µM) | 50 µg/mL (≈ 57.5 µM) | 6.25 µg/mL (≈ 7.19 µM) | 50 µg/mL (≈ 57.5 µM) | MIC [1]: 32 µg/mL (≈ 36.8 µM); MIC [15]: > 128 µg/mL; ED50 ([16]; C203, Oral): > 100 mg/kg; ED50 ([16]; C203, sc, Subcutaneous): 2.04 mg/kg; MIC [17]: 32 µg/mL (≈ 36.8 µM); MIC [22]: 6.25 µg/mL (≈ 7.19 µM); MIC [25]: 3.12 µg/mL (≈ 3.59 µM)
2 | CCC1OC(=O)CC(O)C(C)C(OC2OC(C)C(O)C(N(C)C)C2O)C(CCN2CCc3ccccc32)CC(C)C(=O)C=CC(C)=CC1COC1OC(C)C(O)C(OC)C1OC (stereo not shown) [Compound D42] | 0.25 µg/mL (≈ 0.286 µM) | 0.5 µg/mL (≈ 0.571 µM) | 0.25 µg/mL (≈ 0.286 µM) | 8 µg/mL (≈ 9.14 µM) | 0.5 µg/mL (≈ 0.571 µM) | 0.5 µg/mL (≈ 0.571 µM) | 16 µg/mL (≈ 18.3 µM) | > 128 µg/mL | 0.25 µg/mL (≈ 0.286 µM) | > 128 µg/mL | 5 µg/mL (≈ 5.71 µM) | 64 µg/mL (≈ 73.1 µM) | 0.5 µg/mL (≈ 0.571 µM) | 50 µg/mL (≈ 57.1 µM) | 0.097 µg/mL (≈ 0.111 µM) | 0.195 µg/mL (≈ 0.223 µM) | 12.5 µg/mL (≈ 14.3 µM) | 25 µg/mL (≈ 28.6 µM) | 0.78 µg/mL (≈ 0.891 µM) | 3.12 µg/mL (≈ 3.57 µM) | MIC [1]: 2 µg/mL (≈ 2.29 µM); MIC [15]: > 128 µg/mL; MIC [17]: 2 µg/mL (≈ 2.29 µM); MIC [22]: 0.78 µg/mL (≈ 0.891 µM); MIC [25]: 0.097 µg/mL (≈ 0.111 µM)
3 | CCC1OC(=O)CC(O)C(C)C(OC2OC(C)C(O)C(N(C)C)C2O)C(CCN2CC3CCC(C3)C2)CC(C)C(=O)C=CC(C)=CC1COC1OC(C)C(O)C(OC)C1OC (stereo not shown) [Compound D46] | – | – | – | – | – | – | – | – | – | – | – | – | – | 6.25 µg/mL (≈ 7.21 µM) | 0.195 µg/mL (≈ 0.225 µM) | 1.56 µg/mL (≈ 1.8 µM) | 6.25 µg/mL (≈ 7.21 µM) | 12.5 µg/mL (≈ 14.4 µM) | 1.56 µg/mL (≈ 1.8 µM) | 25 µg/mL (≈ 28.8 µM) | Number of Deaths/Number Treated [27]: 3/10; MIC [22]: 3.12 µg/mL (≈ 3.6 µM); MIC [25]: 3.12 µg/mL (≈ 3.6 µM)
4 | CCC1OC(=O)CC(O)C(C)C(OC2OC(C)C(O)C(N(C)C)C2O)C(CCN2CCCCCCC2)CC(C)C(=O)C=CC(C)=CC1COC1OC(C)C(O)C(O)C1OC (stereo not shown) [Compound L5, 20-DH-DO-20-(octahydroazocin-1-yl)lactenocin] | 0.5 µg/mL (≈ 0.585 µM) | 2 µg/mL (≈ 2.34 µM) | 0.5 µg/mL (≈ 0.585 µM) | 6 µg/mL (≈ 7.02 µM) | 0.5 µg/mL (≈ 0.585 µM) | 1 µg/mL (≈ 1.17 µM) | 32 µg/mL (≈ 37.4 µM) | > 128 µg/mL | 1 µg/mL (≈ 1.17 µM) | > 128 µg/mL | 1 µg/mL (≈ 1.17 µM) | 16 µg/mL (≈ 18.7 µM) | 1 µg/mL (≈ 1.17 µM) | 12.5 µg/mL (≈ 14.6 µM) | 6.25 µg/mL (≈ 7.31 µM) | 3.12 µg/mL (≈ 3.65 µM) | 6.25 µg/mL (≈ 7.31 µM) | 12.5 µg/mL (≈ 14.6 µM) | 0.78 µg/mL (≈ 0.912 µM) | 50 µg/mL (≈ 58.5 µM) | Number of Deaths/Number Treated [28]: 0/10; MIC [29]: 16 µg/mL (≈ 18.7 µM); pKa ([30]; Titratable groups): 9.3; pKa ([30]; Titratable groups (first value)): 7.8; MIC [15]: 16 µg/mL (≈ 18.7 µM); ED50 ([16]; C203, Oral): 100 mg/kg; ED50 ([16]; C203, sc, Subcutaneous): 1.8 mg/kg; MIC [17]: 16 µg/mL (≈ 18.7 µM); MIC [31]: 1.56 µg/mL (≈ 1.82 µM)
